Source: publication PMC5945563 (Chemistry Central Journal, 2018)
Structures can show the parent of a compound that is named as a salt.

Key:
[1] = target: human D2L receptor (Homo sapiens, UniProt P14416); test: Radioligand binding assay, [3H]-raclopride, HEK293 cell membranes
[2] = target: T1, human 5-HT1A receptor (Homo sapiens, UniProt P08908); test: Radioligand binding assay, [3H]-8-OH-DPAT, HEK293 cell membranes
T1 sequence (P08908 1-422): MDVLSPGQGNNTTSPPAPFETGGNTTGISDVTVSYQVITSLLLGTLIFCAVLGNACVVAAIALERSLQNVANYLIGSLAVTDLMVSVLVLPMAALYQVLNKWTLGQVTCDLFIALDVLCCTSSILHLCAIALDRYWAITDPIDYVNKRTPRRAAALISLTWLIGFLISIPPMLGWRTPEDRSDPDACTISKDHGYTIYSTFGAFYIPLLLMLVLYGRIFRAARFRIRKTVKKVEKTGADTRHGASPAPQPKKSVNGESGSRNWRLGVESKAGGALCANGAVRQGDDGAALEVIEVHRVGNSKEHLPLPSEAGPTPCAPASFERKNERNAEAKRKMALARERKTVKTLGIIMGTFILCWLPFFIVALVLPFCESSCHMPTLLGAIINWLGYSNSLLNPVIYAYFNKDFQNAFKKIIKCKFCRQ

[3] = target: human 5-HT7b receptor (Homo sapiens, UniProt P34969); test: Radioligand binding assay, [3H]-5-CT, HEK293 cell membranes
Sequence of human 5-HT7b receptor (P34969 1-432 limits assumed): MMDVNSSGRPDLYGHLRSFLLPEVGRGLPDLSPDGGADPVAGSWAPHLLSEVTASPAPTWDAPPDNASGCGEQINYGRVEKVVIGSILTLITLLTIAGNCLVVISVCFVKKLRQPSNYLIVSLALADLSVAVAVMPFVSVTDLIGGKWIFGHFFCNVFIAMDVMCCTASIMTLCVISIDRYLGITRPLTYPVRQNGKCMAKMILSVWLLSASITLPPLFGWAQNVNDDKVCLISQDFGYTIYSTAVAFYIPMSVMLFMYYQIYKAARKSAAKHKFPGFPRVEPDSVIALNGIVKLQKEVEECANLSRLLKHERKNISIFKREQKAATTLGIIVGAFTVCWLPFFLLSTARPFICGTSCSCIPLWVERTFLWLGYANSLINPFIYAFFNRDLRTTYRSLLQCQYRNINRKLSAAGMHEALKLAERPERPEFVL

[4] = target: human 5-HT6 receptor (Homo sapiens, UniProt P50406); test: Radioligand binding assay, [3H]-LSD, HEK293 cell membranes
Sequence of human 5-HT6 receptor (P50406 whole entry): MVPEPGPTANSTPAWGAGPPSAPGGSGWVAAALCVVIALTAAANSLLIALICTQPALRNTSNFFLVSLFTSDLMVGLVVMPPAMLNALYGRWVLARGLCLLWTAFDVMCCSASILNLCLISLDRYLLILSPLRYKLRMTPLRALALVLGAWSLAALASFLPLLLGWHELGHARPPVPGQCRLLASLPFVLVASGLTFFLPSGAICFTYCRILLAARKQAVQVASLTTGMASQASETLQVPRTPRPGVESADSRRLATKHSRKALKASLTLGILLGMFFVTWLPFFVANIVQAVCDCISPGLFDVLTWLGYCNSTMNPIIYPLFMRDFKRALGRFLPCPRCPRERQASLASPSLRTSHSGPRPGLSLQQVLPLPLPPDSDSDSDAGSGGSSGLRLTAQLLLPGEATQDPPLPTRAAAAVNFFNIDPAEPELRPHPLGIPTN

Sequence of human D2L receptor (P14416 whole entry): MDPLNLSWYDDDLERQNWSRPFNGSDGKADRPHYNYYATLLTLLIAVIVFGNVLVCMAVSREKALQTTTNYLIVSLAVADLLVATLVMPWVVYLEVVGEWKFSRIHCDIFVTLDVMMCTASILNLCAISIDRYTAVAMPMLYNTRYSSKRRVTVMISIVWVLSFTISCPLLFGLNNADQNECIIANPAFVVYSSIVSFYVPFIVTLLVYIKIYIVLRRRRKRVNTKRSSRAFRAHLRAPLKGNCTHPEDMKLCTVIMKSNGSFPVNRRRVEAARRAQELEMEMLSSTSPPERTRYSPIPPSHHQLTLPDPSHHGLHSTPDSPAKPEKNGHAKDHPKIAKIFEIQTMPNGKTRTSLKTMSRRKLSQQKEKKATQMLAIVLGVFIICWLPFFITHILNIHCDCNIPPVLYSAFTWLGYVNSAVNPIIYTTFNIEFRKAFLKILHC

Row | SMILES | melting point [°C] | Ki [1] [nM] | Ki [2] [nM] | Ki [3] [nM] | Ki [4] [nM]
1 | O=S(=O)(NCCCCN1CCN(c2ccccc2)CC1)c1cc2ccccc2cn1 (as salt: hydrochloride) [Compound 1, N-(4-(4-phenyl)piperazin-1-yl)butyl)isoquinoline-3-sulfonamide hydrochloride] | 198 to 199 |  |  |  | 
2 | Cl.O=S(=O)(NCCCCN1CCN(c2cccc(Cl)c2)CC1)c1cc2ccccc2cn1 [Compound 2, N-(4-(4-(3-chlorophenyl)piperazin-1-yl)butyl)isoquinoline-3-sulfonamide hydrochloride] | 246 to 247 | 47 | 38 | 49 | 436
3 | Cc1cccc(N2CCN(CCCCNS(=O)(=O)c3cc4ccccc4cn3)CC2)c1C.Cl [Compound 4, N-(4-(4-(2,3-dimethylphenyl)piperazin-1-yl)butyl)isoquinoline-3-sulfonamide hydrochloride] | 215 to 216 | 23 | 73 | 85 | 916
